3 substances from patent US8586020B2, “Poly(organophosphazene) composition for biomaterials” (Korea Institute of Science and Technology, priority 2011, dated 2013) can be followed below.

For data set [1] the following is noted: pH 7.4.
For data set [2], the system named is NIH3T3 cells.

As to “Poly[(isoleucineethylester)(aminomethoxy polyethyleneglycol550)(cysteamine)phosphazene] [Example 21]”, the “Max. Gelling Temp.” value in data set [1] was 38 °C. Further, in data set [2], the “cell viability (MTT)” value was “such a high viability as the cell alone”.

In the case of “Poly[(isoleucineethylester)(aminomethoxy polyethyleneglycol550)(cysteamine)phosphazene] [Example 22]”, the “Max. Gelling Temp.” value in data set [1] came to 42 °C. Besides, the “cell viability (MTT)” value in data set [2] is listed as “such a high viability as the cell alone”. Take “Poly[(isoleucineethylester)(aminomethoxy polyethyleneglycol550)(tyramine)phosphazene] [Example 24]”: in data set [1], the “Max. Gelling Temp.” value turned out to be 34 °C.
